The values that follow come from patent US20220142164A1, “HERBICIDAL COMPOUNDS” (SYNGENTA CROP PROTECTION AG, priority 2019, published 2022).

Test in all cases: Post-emergence efficacy, glasshouse pot test
Type in all cases: in vivo
Holding throughout (settings): 312 h, post-emergence spray, Application Rate 500 g/Ha, evaluated after 13 days, 100=total damage to plant, 0=no damage to plant

Experiment [1] concerns Chenopodium album (CHEAL). The procedure: (§1) Seeds of a variety of test species were sown in standard soil in pots. After cultivation for 14 days (post-emergence) under controlled conditions in a glasshouse (at 24/16° C., day/night; 14 hours light; 65% humidity), the plants were sprayed with an aqueous spray solution derived from the dissolution of the technical active ingredient formula (I) in a small amount of acetone and a special solvent and emulsifier mixture referred to as IF50 (11.12% Emulsogen EL360 TM+44.44% N-methylpyrrolidone+44.44% Dowanol DPM glycol ether), to create a 50 g/I solution which was then diluted to required concentration using 0.25% or 1% Empicol ESC70 (Sodium lauryl ether sulphate)+1% ammonium sulphate as diluent. The test plants were then grown in a glasshouse under controlled conditions (at 24/16° C., day/night; 14 hours light; 65% humidity) and watered twice daily. After 13 days the test was evaluated (100=total damage to plant; 0=no damage to plant). Ipomoea hederacea (IPOHE), Euphorbia heterophylla (EPHHL), Chenopodium album (CHEAL), Amaranthus palmeri (AMAPA), Lolium perenne (LOLPE), Digitaria sanguinalis (DIGSA), Eleusine indica (ELEIN), Echinochloa crus-galli (ECHCG), Setaria faberi (SETFA)

In the next experiment the test system is Eleusine indica (ELEIN). As for the experimental part:
as §1

Experiment [2] has as its system Amaranthus palmeri (AMAPA). As for the experimental part:
as §1

For experiment [3], the system named is Ipomoea hederacea (IPOHE). As for the experimental part:
as §1

Experiment [4] relates to Digitaria sanguinalis (DIGSA). The procedure:
as §1

A further experiment has as its system Lolium perenne (LOLPE). As for the experimental part: as §1
In experiment [5] the test system is Euphorbia heterophylla (EPHHL). The procedure: as §1
In the next experiment the test system is Setaria faberi (SETFA). As for the experimental part: as §1
Experiment [6] deals with Echinochloa crus-galli (ECHCG). The procedure: as §1

Turning to `COC(=O)CN(C)C(=O)C[n+]1ccc(-c2ncns2)cc1` [Compound A1], the pest or weed control at 500 g/ha in experiment [1] worked out at 10%; with Eleusine indica (ELEIN), 10%; in experiment [2] it was 0%; in experiment [3], 10%; in experiment [4] it was 0%; in the experiment with Lolium perenne (LOLPE) it was 10%. The pest or weed control at 500 g/ha was 10% in experiment [5], 0% in the experiment on Setaria faberi (SETFA) and 0% in experiment [6].
`COC(=O)CCNC(=O)C[n+]1ccc(-c2ncns2)cc1` [Compound A2, methyl 3-[[-2-[4-(1,2,4-thiadiazol-5-yl)pyridin-1-ium-1-yl]acetyl]amino]propanoate bromide]: the pest or weed control at 500 g/ha in experiment [1] was found to be 90%; in the experiment with Eleusine indica (ELEIN), 30%; in experiment [2], 80%; in [3], 50%; in [4] it was 40%; in the experiment on Lolium perenne (LOLPE) it was 10%. Also, the pest or weed control at 500 g/ha was found to be 40% in experiment [5], 50% in the experiment on Setaria faberi (SETFA) and 20% in experiment [6].
On to `O=C(O)CNC(=O)C[n+]1ccc(-c2ncns2)cc1` [Compound A3, 2-[[2-[4-(1,2,4-thiadiazol-5-yl)pyridin-1-ium-1-yl]acetyl]amino]acetic acid chloride], for which the pest or weed control at 500 g/ha in [1] came out at 90%; in the experiment with Eleusine indica (ELEIN), 100%; in experiment [2] it was 90%; in experiment [3], 100%; in experiment [4] it was 100%; with Lolium perenne (LOLPE), 70%. Further, the pest or weed control at 500 g/ha (in experiment [5]; with Setaria faberi (SETFA); in experiment [6]) was 100% throughout.
Consider `O=C(O)CCNC(=O)C[n+]1ccc(-c2ncns2)cc1` [Compound A4, 3-[[2-[4-(1,2,4-thiadiazol-5-yl)pyridin-1-ium-1-yl]acetyl]amino]propanoic Acid Chloride], for which the pest or weed control at 500 g/ha in experiment [1] was 90%; in the experiment on Eleusine indica (ELEIN), 100%; in experiment [2], 90%; in [3], 90%; in [4] it was 100%; in the experiment on Lolium perenne (LOLPE), 90%. Also, the pest or weed control at 500 g/ha was 90% in [5], 70% with Setaria faberi (SETFA) and 70% in experiment [6].
As for `COC(=O)CNC(=O)C[n+]1ccc(-c2ncns2)cc1` [Compound A5, methyl 2-[[2-[4-(1,2,4-thiadiazol-5-yl)pyridin-1-ium-1-yl]acetyl]amino]acetate bromide], the pest or weed control at 500 g/ha in [1] was 90%; with Eleusine indica (ELEIN), 100%; in experiment [2] it was 90%; in experiment [3], 80%; in experiment [4] it was 100%; with Lolium perenne (LOLPE), 30%. Further, the pest or weed control at 500 g/ha amounted to 80% in experiment [5], 60% in the experiment on Setaria faberi (SETFA) and 90% in experiment [6].
On to `CN(CC(=O)O)C(=O)C[n+]1ccc(-c2ncns2)cc1` [Compound A6], for which the pest or weed control at 500 g/ha was 90% in [1]; 20% with Eleusine indica (ELEIN); 100% in experiment [2]; 40% in experiment [3]; 90% in experiment [4]; 40% in the experiment on Lolium perenne (LOLPE). The pest or weed control at 500 g/ha was 90% in [5], 40% in the experiment on Setaria faberi (SETFA) and 60% in experiment [6].
Take `CC(NC(=O)C[n+]1ccc(-c2ncns2)cc1)C(=O)O` (stereo not drawn) [Compound A7]: the pest or weed control at 500 g/ha in experiment [1] was found to be 90%; in the experiment on Eleusine indica (ELEIN), 100%; in experiment [2], 100%; in experiment [3], 100%; in experiment [4] it was 100%; in the experiment on Lolium perenne (LOLPE) it was 80%. Further, the pest or weed control at 500 g/ha (in experiment [5]; with Setaria faberi (SETFA); in experiment [6]) was 100% in each case.
Take `COC(=O)C(C)NC(=O)C[n+]1ccc(-c2ncns2)cc1` (stereo not drawn) [Compound A8]: the pest or weed control at 500 g/ha in experiment [1] came to 90%; in the experiment on Eleusine indica (ELEIN), 100%; in experiment [2], 100%; in experiment [3], 100%; in experiment [4], 100%; in the experiment on Lolium perenne (LOLPE) it was 60%. Further, the pest or weed control at 500 g/ha (in experiment [5]; with Setaria faberi (SETFA); in experiment [6]) was 100% in each case.
For `O=C(C[n+]1ccc(-c2ncns2)cc1)NCCS(=O)(=O)[O-]` [Compound A9, 2-[[2-[4-(1,2,4-thiadiazol-5-yl)pyridin-1-ium-1-yl]acetyl]amino]ethanesulfonate], the pest or weed control at 500 g/ha in experiment [1] was found to be 70%; in the experiment on Eleusine indica (ELEIN) it was 50%; in experiment [2], 90%; in experiment [3] it was 60%; in [4], 30%; in the experiment on Lolium perenne (LOLPE), 30%. In addition, the pest or weed control at 500 g/ha in [5] was found to be 90%; in the experiment with Setaria faberi (SETFA), 60%; in [6], 30%.
For `CN(CCS(=O)(=O)[O-])C(=O)C[n+]1ccc(-c2ncns2)cc1` [Compound A10], the pest or weed control at 500 g/ha in experiment [1] worked out at 20%; in the experiment on Eleusine indica (ELEIN), 40%; in [2] it was 90%; in experiment [3] it was 50%; in experiment [4] it was 40%; in the experiment on Lolium perenne (LOLPE), 20%. In addition, the pest or weed control at 500 g/ha came out at 80% in experiment [5], 50% in the experiment on Setaria faberi (SETFA) and 30% in experiment [6].
Consider `O=C(O)CNC(=O)CC[n+]1ccc(-c2ncns2)cc1` [Compound A13], for which the pest or weed control at 500 g/ha in experiment [1] stood at 30%; in the experiment with Eleusine indica (ELEIN) it was 70%; in experiment [2], 100%; in experiment [3], 20%; in experiment [4], 70%; with Lolium perenne (LOLPE), 40%. Besides, the pest or weed control at 500 g/ha in experiment [5] is 60%; in the experiment on Setaria faberi (SETFA), 80%; in experiment [6], 50%.
For the compound `O=C(CC[n+]1ccc(-c2ncns2)cc1)NCS(=O)(=O)[O-]` [Compound A14, [3-[4-(1,2,4-thiadiazol-5-yl)pyridin-1-ium-1-yl]propanoylamino]methanesulfonate], the pest or weed control at 500 g/ha is 90% in [1]; 60% with Eleusine indica (ELEIN); 100% in experiment [2]; 30% in [3]; 100% in [4]; 10% in the experiment on Lolium perenne (LOLPE). Further, the pest or weed control at 500 g/ha in experiment [5] worked out at 20%; in the experiment on Setaria faberi (SETFA) it was 70%; in [6], 70%.
In the case of `O=C(O)CCSC[n+]1ccc(-c2ncns2)cc1` [Compound A15, 3-[[4-(1,2,4-thiadiazol-5-yl)pyridin-1-ium-1-yl]methylsulfanyl]propanoic acid chloride], the pest or weed control at 500 g/ha in experiment [1] was determined as 90%; in the experiment on Eleusine indica (ELEIN), 90%; in experiment [2], 100%; in experiment [3], 40%; in experiment [4], 100%; with Lolium perenne (LOLPE), 50%. For the same compound, the figures for the pest or weed control at 500 g/ha (in experiment [5]; in the experiment on Setaria faberi (SETFA); in [6]) were 40%, 100% and 100%, respectively.
For `O=C(C[n+]1ccc(-c2ncns2)cc1)NC1(C(=O)O)CC1` [Compound A16], the pest or weed control at 500 g/ha in [1] was determined as 90%; with Eleusine indica (ELEIN), 40%; in [2], 100%; in experiment [3], 50%; in experiment [4], 80%; in the experiment on Lolium perenne (LOLPE), 50%. Besides, the values for the pest or weed control at 500 g/ha (in [5]; in the experiment on Setaria faberi (SETFA); in experiment [6]) were 90%, 100% and 90%, respectively.
For `CC(C)(NC(=O)C[n+]1ccc(-c2ncns2)cc1)C(=O)O` [Compound A17], the pest or weed control at 500 g/ha in experiment [1] amounted to 50%; in the experiment on Eleusine indica (ELEIN), 60%; in experiment [2], 100%; in experiment [3], 40%; in [4] it was 80%; with Lolium perenne (LOLPE), 30%. Also, the figures for the pest or weed control at 500 g/ha (in experiment [5]; with Setaria faberi (SETFA); in experiment [6]) were 70%, 80% and 60%, respectively.
